{"source": "patent US20190015379A1", "about": "“USE OF DIANHYDROGALACTITOL AND ANALOGS AND DERIVATIVES THEREOF, TOGETHER WITH RADIATION, TO TREAT NON-SMALL-CELL CARCINOMA OF THE LUNG AND GLIOBLASTOMA MULTIFORME AND SUPPRESS PROLIFERATION OF CANCER STEM CELLS” (DelMar Pharmaceuticals, Inc., priority 2014, published 2019)", "key": {"[1]": {"conditions": "cited from earlier work"}, "[2]": {"conditions": "in vivo; cited from earlier work"}, "[3]": {"test": "Phase I/II dose-escalation study, safety (DLT, SAE, MTD)", "format": "in vivo, human", "conditions": "for drug-related serious adverse events: dose cohorts completed to date", "text": "The methodology of the study reported in this Example is as follows: An open-label, single arm Phase I/II dose-escalation study designed to evaluate the safety, tolerability, pharmacokinetics and anti-tumor activity of dianhydrogalactitol in patients with: (i) histologically confirmed initial diagnosis of primary WHO Grade IV malignant GBM, now recurrent, or (ii) progressive secondary brain tumor, having failed standard brain radiotherapy, and with brain tumor progression after at least one line of systemic therapy. The study utilizes a 3+3 dose escalation design, until the MTD or the maximum specified dose is reached. […] In Phase II, additional patients will be treated at the MTD (or other selected optimum Phase II dose) to measure tumor responses. All patients enrolled have previously been treated with surgery and/or radiation, if appropriate, and must have failed both bevacizumab and TMZ, unless contraindicated. For these studies, the following is a summary of the inclusion criteria: (1) Patients must be greater than or equal to 18 years old. (2) There is a histologically confirmed initial diagnosis of primary WHO Grade IV malignant glioma (glioblastoma), now recurrent, or progressive secondary brain tumor, the patient has failed standard brain radiotherapy, and the patient has brain tumor progression after at least one line of systemic therapy. […] (4) The patient must have a predicted life expectancy of at least 12 weeks. The following is a summary of the exclusion criteria: (1) There is a current history of neoplasm other than the entry diagnosis. Patients with previous cancers treated and cured with local therapy alone may be considered. (2) There is evidence of leptomeningeal spread of disease. […] (4) The patient had undergone prior treatment with intracerebral agents. […] (6) The patient is being administered concomitant medications that are strong inhibitors of cytochrome P450 and CYP3A up to 14 days before Cycle 1, Day 1 (pimozide, diltiazem, erythromycin, clarithromycin, and quinidine, and amiodarone up to 90 days before.\nEnrollment and evaluation of Cohort 7 (40 mg/m^2) is ongoing. Higher doses may be enrolled subject to completion of mandated safety observation period with Cohort 6 (30 mg/m^2). Patients enrolled present with refractory progressive GBM and a dire prognosis. […] The primary endpoint of this portion of the study is to determine a modernized dosing regimen for advancement to registration-directed clinical trials. […] In this design, it is not possible to perform a rigorous assessment of patient benefit due to slowed tumor growth. Tumor volume is assessed during the study based on RANO criteria. […] Outcomes analysis of cohort 6 is ongoing. These preliminary data support continued exploration of higher dose cohorts."}, "[4]": {"conditions": "secondary brain tumor patients, n = 6"}}, "note": "Like-named read-outs stand apart in the source and are kept apart here."}
{"substance": "dianhydrogalactitol", "values": [{"measurement": "Recovery", "setting": "[1]; GBM chemotherapy, historical data", "result": "Within 7-8 days"}, {"measurement": "DLT", "setting": "[1]; human, in vivo", "result": "Hematologic"}, {"measurement": "Nadir", "setting": "[1]; human, in vivo", "result": "18 to 21", "unit": "days"}, {"measurement": "Other Severe Toxicities Reported (>2%)", "setting": "[1]; human, in vivo", "result": "None"}, {"measurement": "blood-brain barrier passage", "setting": "[2]", "result": "readily crosses the blood-brain barrier and accumulates in brain tissue"}, {"measurement": "Status (DLT)", "setting": "[3]; 1.5 mg/m^2, cumulative 9 mg/m^2 in 33-day cycle", "result": "Completed - No DLT"}, {"measurement": "Status (DLT)", "setting": "[3]; 3.0 mg/m^2, cumulative 18 mg/m^2 in 33-day cycle", "result": "Completed - No DLT"}, {"measurement": "Status (DLT)", "setting": "[3]; 5.0 mg/m^2, cumulative 30 mg/m^2 in 33-day cycle", "result": "Completed - No DLT"}, {"measurement": "Status (DLT)", "setting": "[3]; 10.0 mg/m^2, cumulative 60 mg/m^2 in 33-day cycle", "result": "Completed - NO DLT"}, {"measurement": "Status (DLT)", "setting": "[3]; 20.0 mg/m^2 (revised scheme), cumulative 120 mg/m^2 in 33-day cycle", "result": "Completed - NO DLT"}, {"measurement": "Status (DLT)", "setting": "[3]; 30.0 mg/m^2 (revised scheme), cumulative 180 mg/m^2 in 33-day cycle, analysis ongoing", "result": "Completed - No DLT"}, {"measurement": "DLT", "setting": "[3]; GBM patients, n = 8", "result": "None"}, {"measurement": "drug-related serious adverse events", "setting": "[3]", "result": "No drug-related serious adverse events have been detected"}, {"measurement": "drug-related serious adverse events", "setting": "[3]; listed as Dianhydrogalactitol", "result": "no drug-related serious adverse events have been detected"}, {"measurement": "maximum tolerated dose (MTD), as 33 day cycle cumulative dose", "setting": "[3]; five dose cohorts completed, not yet reached", "result": "> 120", "unit": "mg/m^2"}, {"measurement": "maximum tolerated dose (MTD)", "setting": "[3]; i.v. on days 1, 2, and 3 of each 21-day cycle, not reached", "result": "> 30", "unit": "mg/m^2"}, {"measurement": "DLT", "setting": "[3]; [4]", "result": "None"}, {"measurement": "SAE", "setting": "[3]; [4]", "result": "None (n = 5)"}]}
